For one assay, the system named is BRIN-BD11 cells. As to the kind of experiment: Intracellular Ca2+ in BRIN-BD11 cells (FLIPR Calcium 5). Type of assay: cell-based, rat. As to conditions: peptide 10^−6 mol/l, 5.6 mmol/l glucose, 5 min, AUC 0–300 s. As for the experimental part:
BRIN-BD11 cells were used to assess the insulin-releasing activity of test peptides, as described previously. This hybrid cell line (ECACC 10033003) was originally generated in-house by electrofusion of a primary culture of New England Deaconess Hospital (NEDH) rat pancreatic islets with RINm5F (a cell line derived from an NEDH rat insulinoma), and has been mycoplasma eradicated. For details of experimental conditions please see ESM Methods. Insulin was measured by radioimmunoassay. We assessed the impact of GIP and neurotensin receptors on (DAla^2)GIP/xenin-8-Gln-induced insulin secretion in BRIN-BD11 cells. Cells were incubated in 5.6 mmol/l glucose with (DAla^2)GIP/xenin-8-Gln (10^−6 mol/l) alone or in combination with the GIP receptor antagonist GIP(6-30)Cex-K^40[Pal] [32] (where Pal is palmitate) or the neurotensin receptor antagonist SR142948A (Sigma, Poole, UK), and insulin secretion determined as described above. In addition, to determine mechanisms, intracellular Ca^2+ was also measured in BRIN-BD11 cells following treatment with test peptides (10^−6 mol/l), using a Flexstation scanning fluorometer (FLIPR Calcium 5 assay kit; Molecular Devices, Sunnyvale, CA, USA), as described previously.

Assay [1] relates to lean control mice. Kind of assay: Acute cumulative food intake in lean mice. Type of assay: in vivo, mouse. The following applies: 250 nmol/kg i.p., 18 h fasted lean mice, 180 min post injection, vs saline. The procedure: (§1) Animals Acute animal studies were conducted in male NIH Swiss mice (12-14 weeks old, Harlan Ltd, UK) maintained on a standard rodent maintenance diet (10% fat, 30% protein and 60% carbohydrate, Trouw Nutrition, UK). Prior to commencement of longer term studies, all animals, except lean controls that continued on rodent maintenance diet, were maintained on a high-fat diet (45% fat, 35% carbohydrate and 20% protein, Special Diet Services, UK) for 12 weeks. This diet […]
(§2) individually in an air-conditioned room at 22 ± 2 °C with a 12 h light:12 h dark cycle and had free access to food and water. Animal experiments were carried out in accordance with the UK Animals (Scientific Procedures) Act 1986.
(§3) Acute in vivo effects in lean mice For food intake studies, fasted (18 h) mice were given intraperitoneal (i.p) injections of peptides at a dose of 25, 100 or 250 nmol/kg bw. Mice were then allowed free access to normal chow for 180 mins and cumulative food intake measured. For glucose homeostasis and […]

Assay [2] has as its system lean control mice. Kind of assay: Acute glucose-lowering and insulin-releasing effects in lean mice. Type of assay: in vivo, mouse. As to conditions: 25 nmol/kg i.p. with glucose 18 mmol/kg, non-fasted lean mice. The procedure: Specific information on acute feeding, glucose homeostasis and insulin-secretory studies is given in ESM Methods. To assess the impact of GIP and neurotensin receptor activation on (DAla^2)GIP/xenin-8-Gln-induced glucose-lowering and insulin-secretory actions in mice, (DAla^2)GIP/xenin-8-Gln was administered by i.p. injection (25 nmol/kg body weight) in combination with glucose (18 mmol/kg) in the absence and presence of GIP(6-30)Cex-K^40[Pal] and SR142948A (both at 25 nmol/kg), and glucose and insulin were measured as described above. In a final series of experiments, test peptides (25 nmol/kg) or saline vehicle (0.9% wt/vol. NaCl) were injected 4 h before a glucose load (18 mmol/kg) in non-fasted mice and blood glucose and plasma insulin measured as above. […]
as §1, §2, §3

The subject of assay [3] is lean control mice. As to the kind of experiment: Persistent glucose-lowering and insulin-releasing effects, peptide 4 h before glucose load. Type of assay: in vivo, mouse. The following applies: 25 nmol/kg injected 4 h before i.p. glucose load 18 mmol/kg, non-fasted lean mice, vs saline. As for the experimental part: Specific information on acute feeding, glucose homeostasis and insulin-secretory studies is given in ESM Methods. To assess the impact of GIP and neurotensin receptor activation on (DAla^2)GIP/xenin-8-Gln-induced glucose-lowering and insulin-secretory actions in mice, (DAla^2)GIP/xenin-8-Gln was administered by i.p. injection (25 nmol/kg body weight) in combination with glucose (18 mmol/kg) in the absence and presence of GIP(6-30)Cex-K^40[Pal] and SR142948A (both at 25 nmol/kg), and glucose and insulin were measured as described above. In a final series of experiments, test peptides (25 nmol/kg) or saline vehicle (0.9% wt/vol. NaCl) were injected 4 h before a glucose load (18 mmol/kg) in non-fasted mice and blood glucose and plasma insulin measured as above.

Assay [4] relates to high-fat-fed mice. As to the kind of experiment: Metabolic response to native GIP after 21 day treatment. Type of assay: in vivo, mouse. The following applies: 25 nmol/kg twice daily for 21 days. As for the experimental part:
(§4) Twice-daily (09:30 and 17:30 hours) i.p. injections of saline vehicle, (DAla^2)GIP or (DAla^2)GIP/xenin-8-Gln hybrid (both at 25 nmol/kg) were administered for 21 days in high-fat-fed mice. Energy intake and body weight were monitored daily and non-fasting blood glucose and plasma insulin concentrations were assessed at 3 day intervals. On day 21, a non-fasted 24 h glucose profile was conducted. At the end of the treatment period, i.p. glucose tolerance (18 mmol/kg), biological response to GIP (18 mmol/kg glucose in combination with native GIP [25 nmol/kg], i.p.) and insulin sensitivity (15 U/kg; i.p.) tests were performed. Terminal analysis included measurement of total body fat and lean mass by dual-energy X-ray absorptiometry (DEXA) scanning (Piximus Densitometer; Inside Outside Sales, Fitchburg, WI, USA) and extraction of pancreatic tissue for analysis as detailed below.

Assay [5] relates to high-fat-fed mice. Kind of assay: Insulin sensitivity test after 21 day treatment. The format is in vivo, mouse. As to conditions: insulin 15 U/kg i.p., non-fasted high-fat-fed mice after 21 days at 25 nmol/kg twice daily. As for the experimental part:
as §4
Fig. 4 Effects of twice-daily administration of (DAla^2)GIP and (DAla^2)GIP/xenin-8-Gln on insulin sensitivity and pancreatic insulin content in high-fat-fed mice. […] Blood glucose was measured (a), area above the curve (AAC) was calculated using identical baseline subtraction for each group (b) and pancreatic insulin content was measured by RIA (c). […]

The mark [6] stands for this setting: AUC 0–105 min after i.p. glucose 18 mmol/kg with GIP 25 nmol/kg, 18 h fasted high-fat-fed mice, mean ± SEM, 6–8 mice.

The structures appear in SMILES notation. Marks after values point to notes of the source that are not given here.

On to `CC[C@H](C)[C@H](NC(=O)[C@H](CO)NC(=O)[C@H](Cc1ccc(O)cc1)NC(=O)[C@H](CC(=O)O)NC(=O)[C@H](CO)NC(=O)[C@@H](NC(=O)[C@H](Cc1ccccc1)NC(=O)[C@@H](NC(=O)CNC(=O)[C@H](CCC(=O)O)NC(=O)[C@@H](C)NC(=O)[C@@H](N)Cc1ccc(O)cc1)[C@@H](C)O)[C@@H](C)CC)C(=O)N[C@@H](C)C(=O)N[C@@H](CCSC)C(=O)N[C@@H](CC(=O)O)C(=O)N[C@@H](CCCCN)C(=O)N[C@H](C(=O)N[C@@H](Cc1c[nH]cn1)C(=O)N[C@@H](CCC(N)=O)C(=O)N[C@@H](CCC(N)=O)C(=O)N[C@@H](CC(=O)O)C(=O)N[C@@H](Cc1ccccc1)C(=O)N[C@H](C(=O)N[C@@H](CC(N)=O)C(=O)N[C@@H](Cc1c[nH]c2ccccc12)C(=O)N[C@@H](CC(C)C)C(=O)N[C@@H](CC(C)C)C(=O)N[C@@H](C)C(=O)N[C@@H](CCC(N)=O)C(=O)N[C@@H](CCCCN)C(=O)NCC(=O)N[C@@H](CCCCN)C(=O)N[C@@H](CCCCN)C(=O)N[C@@H](CC(N)=O)C(=O)N[C@@H](CC(=O)O)C(=O)N[C@@H](Cc1c[nH]c2ccccc12)C(=O)N[C@@H](CCCCN)C(=O)N[C@@H](Cc1c[nH]cn1)C(=O)N[C@@H](CC(N)=O)C(=O)N[C@H](C(=O)N[C@H](C(=O)N[C@@H](CCC(N)=O)C(=O)O)[C@@H](C)O)[C@@H](C)CC)C(C)C)[C@@H](C)CC` [(DAla^2)GIP], for which, in the assay on BRIN-BD11 cells, the “Effect on intracellular Ca^2+ concentrations” value is listed as “Neither, (DAla^2)GIP, xenin-8-Gln nor (DAla^2)GIP/xenin-8-Gln had any effect”. For the same compound, the Cumulative food intake entry in the assay on lean control mice [1] is “all peptides except (DAla^2)GIP induced significant (p < 0.05 to p < 0.01) reductions”. Further, the Blood glucose result in the assay with lean control mice [2] (15 min post injection) was “significant (p < 0.05) reduction in blood glucose levels”. Also, the Blood glucose entry in the assay on lean control mice [2] (30 min post injection, vs glucose alone) is “significantly (p < 0.05) lowered blood glucose values”. For the same compound, the “Overall AUC blood glucose” value in the assay on lean control mice [2] (vs glucose alone) is “significantly (p < 0.05) decreased overall AUC blood glucose values”. Also, in the assay on lean control mice [3], the “Overall AUC for blood glucose after glucose challenge” value is recorded as “significantly reduced the overall AUC for blood glucose (p < 0.05)” and the “Plasma insulin AUC after glucose challenge” value is recorded as “increased plasma insulin AUC (p < 0.05)”. Moreover, the “Decrease of overall blood glucose AUC in response to native GIP compared with saline-treated control” value in the assay on high-fat-fed mice [4] (high-fat-fed mice, glucose 18 mmol/kg with GIP 25 nmol/kg) came to 36%. In the assay on high-fat-fed mice [4] (setting [6]), the “Metabolic response to GIP: Blood glucose AUC” value was determined as 1029.5 ± 138.0 mmol·min/L and the “Metabolic response to GIP: Plasma insulin AUC” value is listed as 20,308 ± 3805**^,††† pmol/l × min. For the same compound, the “Individual blood glucose levels following exogenous insulin” value in the assay on high-fat-fed mice [5] is reported as “reduced, albeit non-significantly”. In the assay with high-fat-fed mice [5] (vs control high-fat mice), the “Overall glucose-lowering effect of insulin (area above the curve)” value is listed as “significantly (p < 0.001) improved”.

(Values after PMC6518372, “An enzymatically stable GIP/xenin hybrid peptide restores GIP sensitivity, enhances beta cell function and improves glucose homeostasis in high-fat-fed mice” (Diabetologia, 2016).)
